In the CheMixHub viscosity set:

Experiment: xn = mol fraction of the nth substance listed

CCOCCO + CCCO
viscosity [mPa·s]
Conditions | 298.15 K | 303.15 K | 308.15 K | 313.15 K
101 kPa, x1 = 0.069 | 1.942 | – | – | –
101 kPa, x1 = 0.1429 | 1.891 | – | – | –
101 kPa, x1 = 0.2223 | 1.852 | – | – | –
101 kPa, x1 = 0.3078 | 1.826 | – | – | –
101 kPa, x1 = 0.4001 | 1.811 | – | – | –
101 kPa, x1 = 0.5001 | 1.806 | – | – | –
101 kPa, x1 = 0.6088 | 1.81 | – | – | –
101 kPa, x1 = 0.7273 | 1.823 | – | – | –
101 kPa, x1 = 0.8572 | 1.839 | – | – | –
101.33 kPa, x1 = 0.0969 | 1.815 | 1.607 | 1.431 | 1.272
101.33 kPa, x1 = 0.199 | 1.761 | 1.56 | 1.395 | 1.244
101.33 kPa, x1 = 0.2917 | 1.73 | 1.542 | 1.376 | 1.235
101.33 kPa, x1 = 0.3971 | 1.659 | 1.482 | 1.326 | 1.178
101.33 kPa, x1 = 0.4928 | 1.711 | 1.521 | 1.366 | 1.223
101.33 kPa, x1 = 0.5933 | 1.721 | 1.531 | 1.377 | 1.233
101.33 kPa, x1 = 0.6923 | 1.732 | 1.546 | 1.386 | 1.232
101.33 kPa, x1 = 0.7987 | 1.754 | 1.567 | 1.403 | 1.265
101.33 kPa, x1 = 0.8853 | 1.774 | 1.578 | 1.418 | 1.402

CNC(C)=O + CCCO
303.15 K, 101 kPa
Conditions | viscosity [mPa·s]
x1 = 0.1069 | 1.816
x1 = 0.1939 | 1.891
x1 = 0.3142 | 2.033
x1 = 0.3918 | 2.142
x1 = 0.4791 | 2.289
x1 = 0.5976 | 2.537
x1 = 0.6966 | 2.785
x1 = 0.7922 | 3.066
x1 = 0.9015 | 3.443

CC(C)CCO + CCO
viscosity [mPa·s]
Conditions | x1 = 0.0558 | x1 = 0.1156 | x1 = 0.1843 | x1 = 0.2587 | x1 = 0.3588 | x1 = 0.4457 | x1 = 0.5523 | x1 = 0.6771 | x1 = 0.8255 | x2 = 0.5
298.15 K, 100 kPa | 1.291 | 1.591 | 1.919 | 2.235 | 2.576 | 2.831 | 3.086 | 3.312 | 3.463 | –
303.15 K, 100 kPa | 1.175 | 1.471 | 1.806 | 2.029 | 2.353 | 2.549 | 2.756 | 2.917 | 2.945 | –
308.15 K, 100 kPa | 1.236 | 1.672 | 2.049 | 2.279 | 2.559 | 2.699 | 2.763 | 2.814 | 2.815 | –
308.15 K, 101 kPa | – | – | – | – | – | – | – | – | – | 1.747
313.15 K, 101 kPa | – | – | – | – | – | – | – | – | – | 1.519
318.15 K, 101 kPa | – | – | – | – | – | – | – | – | – | 1.372

CCC(=O)O.OCCNCCO + CCO
303.15 K, 101 kPa
Conditions | viscosity [mPa·s]
x1 = 0.5084 | 116.5
x1 = 0.6965 | 177.5
x1 = 0.804 | 226.5

CCOCCO + CCO
298.15 K, 101 kPa
Conditions | viscosity [mPa·s]
x1 = 0.0538 | 1.147
x1 = 0.1133 | 1.207
x1 = 0.1798 | 1.272
x1 = 0.2542 | 1.341
x1 = 0.3383 | 1.416
x1 = 0.4341 | 1.497
x1 = 0.544 | 1.581
x1 = 0.6716 | 1.669
x1 = 0.8215 | 1.761

CNC(C)=O + CCO
303.15 K, 101 kPa
Conditions | viscosity [mPa·s]
x1 = 0.1049 | 1.108
x1 = 0.2021 | 1.237
x1 = 0.3699 | 1.52
x1 = 0.4024 | 1.584
x1 = 0.5109 | 1.833
x1 = 0.6023 | 2.084
x1 = 0.6979 | 2.402
x1 = 0.7994 | 2.792
x1 = 0.895 | 3.236

Oc1ccc(Cl)cc1 + CCO
Conditions | viscosity [mPa·s]
298.15 K, 101 kPa, x1 = 0.5 | 1.454

Cc1cccc(Cl)c1 + CCOC(=O)c1ccccc1
viscosity [mPa·s], 101 kPa
Conditions | 303.15 K | 313.15 K
x2 = 0.0789 | 0.775 | 0.672
x2 = 0.1831 | 0.822 | 0.711
x2 = 0.2348 | 0.851 | 0.734
x2 = 0.3353 | 0.913 | 0.782
x2 = 0.4121 | 0.973 | 0.827
x2 = 0.4871 | 1.043 | 0.881
x2 = 0.5629 | 1.122 | 0.938
x2 = 0.6364 | 1.212 | 1.006
x2 = 0.711 | 1.312 | 1.084
x2 = 0.7831 | 1.419 | 1.166
x2 = 0.8563 | 1.54 | 1.257
x2 = 0.9045 | 1.625 | 1.321
x2 = 0.9524 | 1.714 | 1.388

CC(C)CCO + CCOCCO
313.15 K, 101 kPa
Conditions | viscosity [mPa·s]
x1 = 0.102 | 1.385
x1 = 0.2036 | 1.425
x1 = 0.8035 | 1.945

CNCCO + CCOCCO
viscosity [mPa·s], 101.3 kPa
Conditions | 293.15 K | 298.15 K | 303.15 K | 308.15 K | 313.15 K | 318.15 K | 323.15 K
x1 = 0.118 | 2.547 | 2.249 | 1.998 | 1.785 | 1.604 | 1.448 | 1.313
x1 = 0.34 | 3.887 | 3.356 | 2.92 | 2.56 | 2.26 | 2.006 | 1.791
x1 = 0.444 | 4.708 | 4.021 | 3.464 | 3.01 | 2.634 | 2.32 | 2.057
x1 = 0.545 | 5.72 | 4.828 | 4.116 | 3.541 | 3.071 | 2.684 | 2.362
x1 = 0.737 | 8.19 | 6.751 | 5.636 | 4.76 | 4.058 | 3.492 | 3.03
x1 = 0.915 | 11.49 | 9.252 | 7.565 | 6.267 | 5.255 | 4.453 | 3.812

CCOCCO + CCc1ccccc1
viscosity [mPa·s]
Conditions | 298.15 K | 308.15 K
101 kPa, x1 = 0.0573 | 0.658 | 0.557
101 kPa, x1 = 0.1487 | 0.696 | 0.597
101 kPa, x1 = 0.2498 | 0.749 | 0.648
101 kPa, x1 = 0.3527 | 0.817 | 0.708
101 kPa, x1 = 0.4489 | 0.895 | 0.773
101 kPa, x1 = 0.4998 | 0.944 | 0.812
101 kPa, x1 = 0.5485 | 0.995 | 0.852
101 kPa, x1 = 0.6501 | 1.121 | 0.945
101 kPa, x1 = 0.7484 | 1.273 | 1.05
101 kPa, x1 = 0.8508 | 1.469 | 1.178
101 kPa, x1 = 0.9547 | 1.721 | 1.331
101.33 kPa, x2 = 0.0993 | 1.589 | –
101.33 kPa, x2 = 0.1968 | 1.378 | –
101.33 kPa, x2 = 0.293 | 1.22 | –
101.33 kPa, x2 = 0.4069 | 1.055 | –
101.33 kPa, x2 = 0.5133 | 0.929 | –
101.33 kPa, x2 = 0.6286 | 0.822 | –
101.33 kPa, x2 = 0.7484 | 0.736 | –
101.33 kPa, x2 = 0.8672 | 0.677 | –

CC(C)CCO + CN1CCCC1=O
298.15 K, 101 kPa
Conditions | viscosity [mPa·s]
x2 = 0.0595 | 3.229
x2 = 0.1189 | 2.874
x2 = 0.1501 | 2.732
x2 = 0.2008 | 2.549
x2 = 0.2536 | 2.402
x2 = 0.2994 | 2.298
x2 = 0.3506 | 2.205
x2 = 0.4002 | 2.132
x2 = 0.4519 | 2.06
x2 = 0.5025 | 2.015
x2 = 0.5513 | 1.97
x2 = 0.6039 | 1.926
x2 = 0.6515 | 1.889
x2 = 0.7026 | 1.855
x2 = 0.7505 | 1.823
x2 = 0.8015 | 1.791
x2 = 0.8546 | 1.763
x2 = 0.9046 | 1.739
x2 = 0.9562 | 1.715

CC(C)CCO + CN(C)C=O
Conditions | viscosity [mPa·s]
298.15 K, 101 kPa, x2 = 0.5467 | 1.634

CCn1cc[n+](C)c1.[Cl-] + CN(C)C=O
308.15 K, 101 kPa
Conditions | viscosity [mPa·s]
x1 = 0.0524 | 1.045
x1 = 0.0867 | 1.355
x1 = 0.1232 | 1.705
